The numbers were not newly measured in patent publication US20120015968A1, “USE OF PYRIMIDYLAMINOBENZAMIDE DERIVATIVES FOR THE TREATMENT OF DISORDERS MEDIATED BY THE LEUCINE ZIPPER-AND STERILE ALPHA MOTIF-CONTAINING KINASE (ZAK)” (NOVARTIS AG, priority 2009, published 2012), which cites them from elsewhere.

Usually IC50 stands for the concentration at which inhibition is half-maximal.

The target of the data set is ZAK (Homo sapiens, UniProt Q9NYL2). Conditions: biotinylated myelin basic protein as substrate; U. Rix et al, Leukemia (2010) 24, 44-50, p. 48; read-out: IC50 of inhibition of ZAK activity.
ZAK, sequence (Q9NYL2 whole entry): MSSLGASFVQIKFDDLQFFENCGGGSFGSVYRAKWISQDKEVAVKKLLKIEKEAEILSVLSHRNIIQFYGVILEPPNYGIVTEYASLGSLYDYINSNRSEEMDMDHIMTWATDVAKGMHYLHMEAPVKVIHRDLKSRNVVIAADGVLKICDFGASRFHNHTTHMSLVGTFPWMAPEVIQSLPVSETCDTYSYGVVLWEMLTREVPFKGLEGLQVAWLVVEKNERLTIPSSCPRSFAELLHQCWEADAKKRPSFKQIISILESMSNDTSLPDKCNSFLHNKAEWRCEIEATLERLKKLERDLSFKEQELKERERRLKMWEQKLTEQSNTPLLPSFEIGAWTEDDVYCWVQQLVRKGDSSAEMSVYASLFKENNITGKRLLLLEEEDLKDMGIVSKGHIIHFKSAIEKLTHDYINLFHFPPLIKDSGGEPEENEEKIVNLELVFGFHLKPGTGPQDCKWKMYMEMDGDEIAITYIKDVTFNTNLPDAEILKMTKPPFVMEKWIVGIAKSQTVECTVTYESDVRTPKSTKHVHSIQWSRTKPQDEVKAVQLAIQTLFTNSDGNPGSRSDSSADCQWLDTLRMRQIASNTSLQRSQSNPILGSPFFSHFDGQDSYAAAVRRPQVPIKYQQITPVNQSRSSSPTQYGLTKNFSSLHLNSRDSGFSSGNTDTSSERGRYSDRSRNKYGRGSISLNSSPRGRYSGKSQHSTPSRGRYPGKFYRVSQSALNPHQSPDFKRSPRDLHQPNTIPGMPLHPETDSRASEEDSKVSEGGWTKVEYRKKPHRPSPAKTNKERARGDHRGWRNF

`Cc1ccc(NC(=O)c2ccc(CN3CC[C@H](N(C)C)C3)c(C(F)(F)F)c2)cc1Nc1nccc(-c2cncnc2)n1` [INNO-406]: the half-inhibitory concentration (IC50) was 73 nM.
